These results are taken from BindingDB's records for doi:10.1016/S0960-894X(01)80247-X (1994).

The structures appear in SMILES notation.

One experiment has as its target T1, Endothelin-1 receptor (Rattus norvegicus, UniProt P26684).
T1 sequence (P26684 whole entry): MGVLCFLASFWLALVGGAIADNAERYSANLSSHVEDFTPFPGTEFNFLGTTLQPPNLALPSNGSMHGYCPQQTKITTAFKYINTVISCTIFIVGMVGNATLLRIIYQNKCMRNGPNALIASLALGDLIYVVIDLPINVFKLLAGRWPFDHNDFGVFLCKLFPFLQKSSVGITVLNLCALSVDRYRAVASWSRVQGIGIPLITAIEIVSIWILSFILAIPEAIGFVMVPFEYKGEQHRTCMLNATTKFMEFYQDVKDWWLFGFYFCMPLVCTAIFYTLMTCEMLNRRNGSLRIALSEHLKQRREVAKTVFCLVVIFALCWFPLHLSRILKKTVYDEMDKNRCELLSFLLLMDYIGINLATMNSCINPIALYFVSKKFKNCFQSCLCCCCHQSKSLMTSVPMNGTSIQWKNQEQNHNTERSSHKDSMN
In words: Concentration required to produce 50% inhibition of binding against ET A receptor obtained from rat thoracic aortic membrane.

In experiment [1] the target is T2, Endothelin receptor type B (Rattus norvegicus, UniProt P21451).
T2 sequence (P21451 whole entry): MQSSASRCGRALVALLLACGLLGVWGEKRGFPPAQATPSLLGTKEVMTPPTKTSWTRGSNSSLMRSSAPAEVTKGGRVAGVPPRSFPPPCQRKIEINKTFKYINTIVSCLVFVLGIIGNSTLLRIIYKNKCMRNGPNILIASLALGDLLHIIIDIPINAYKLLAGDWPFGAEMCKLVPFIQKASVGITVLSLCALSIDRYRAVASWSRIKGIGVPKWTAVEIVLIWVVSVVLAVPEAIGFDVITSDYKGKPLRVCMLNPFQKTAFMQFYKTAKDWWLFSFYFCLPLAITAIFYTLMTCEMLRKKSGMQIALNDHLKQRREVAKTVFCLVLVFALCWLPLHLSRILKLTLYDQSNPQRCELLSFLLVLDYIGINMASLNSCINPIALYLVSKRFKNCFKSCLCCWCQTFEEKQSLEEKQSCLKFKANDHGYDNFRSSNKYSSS
In words: Concentration required to produce 50% inhibition of binding against ET B receptor obtained from rat brain membrane.

For `CCC[C@@H](NC(=O)[C@@H](NC(=O)[C@H](CC(=O)O)NC(=O)[C@H](CC(C)C)NC(=O)[C@H](Cc1cnc[nH]1)NC(=O)[C@H](CS)NC(=O)[C@H](Cc1ccccc1)NC(=O)[C@H](Cc1ccc(O)cc1)NC(=O)[C@@H](NC(=O)[C@H](CS)NC(=O)[C@H](CCC(=O)O)NC(=O)[C@H](CCCCN)NC(=O)[C@H](CC(=O)O)NC(=O)[C@H](CCSC)NC(=O)[C@H](CC(C)C)NC(=O)[C@H](CO)NC(=O)[C@H](CO)NC(=O)[C@H](CS)NC(=O)[C@H](CO)NC(=O)[C@@H](N)CS)C(C)C)[C@H](C)CC)C(=O)N[C@@H](Cc1c[nH]c2ccccc12)C(=O)O` [Endothelin-1 analogue], the values for the negative-log IC50 (pIC50) (on Endothelin-1 receptor; in experiment [1]) were 7.6 and 10, respectively.

In the case of `CC[C@@H](C)[C@H](NC(=O)[C@H](CC(=O)O)NC(=O)[C@H](CC(C)C)NC(=O)[C@H](Cc1cnc[nH]1)NC(=O)[C@H](CS)NC(=O)[C@H](Cc1ccccc1)NC(=O)[C@H](Cc1ccc(O)cc1)NC(=O)[C@@H](NC(=O)[C@H](CS)NC(=O)[C@H](CCC(=O)O)NC(=O)[C@H](CCCCN)NC(=O)[C@H](CC(=O)O)NC(=O)[C@H](CCSC)NC(=O)[C@H](CC(C)C)NC(=O)[C@H](CO)NC(=O)[C@H](CO)NC(=O)[C@H](CS)NC(=O)[C@H](CO)NC(=O)[C@@H](N)CS)C(C)C)C(=O)N[C@H](Cc1ccccc1)C(=O)N[C@@H](Cc1c[nH]c2ccccc12)C(=O)O` [Endothelin-1 analogue], the pIC50 at Endothelin-1 receptor came out at 6.07; in experiment [1] it was 8.6.

For the compound `CC[C@H](C)[C@H](NC(=O)[C@H](CC(=O)O)NC(=O)[C@H](CC(C)C)NC(=O)[C@H](Cc1cnc[nH]1)NC(=O)[C@H](CS)NC(=O)[C@H](Cc1ccccc1)NC(=O)[C@H](Cc1ccc(O)cc1)NC(=O)[C@@H](NC(=O)[C@H](CS)NC(=O)[C@H](CCC(=O)O)NC(=O)[C@H](CCCCN)NC(=O)[C@H](CC(=O)O)NC(=O)[C@H](CCSC)NC(=O)[C@H](CC(C)C)NC(=O)[C@H](CO)NC(=O)[C@H](CO)NC(=O)[C@H](CS)NC(=O)[C@H](CO)NC(=O)[C@@H](N)CS)C(C)C)C(=O)N[C@@H](C)C(=O)N[C@@H](Cc1c[nH]c2ccccc12)C(=O)O` [Endothelin-1 analogue], the figures for the pIC50 (on Endothelin-1 receptor; in experiment [1]) were 7.53 and 9.4, respectively.

As for `CC[C@H](C)[C@H](NC(=O)[C@H](CC(=O)O)NC(=O)[C@H](CC(C)C)NC(=O)[C@H](Cc1cnc[nH]1)NC(=O)[C@H](CS)NC(=O)[C@H](Cc1ccccc1)NC(=O)[C@H](Cc1ccc(O)cc1)NC(=O)[C@@H](NC(=O)[C@H](CS)NC(=O)[C@H](CCC(=O)O)NC(=O)[C@H](CCCCN)NC(=O)[C@H](CC(=O)O)NC(=O)[C@H](CCSC)NC(=O)[C@H](CC(C)C)NC(=O)[C@H](CO)NC(=O)[C@H](CO)NC(=O)[C@H](CS)NC(=O)[C@H](CO)NC(=O)[C@@H](N)CS)C(C)C)C(=O)N[C@H](C(=O)N[C@@H](Cc1c[nH]c2ccccc12)C(=O)O)C1CCCCC1` [Endothelin-1 analogue], the negative-log IC50 (pIC50) is 9.88 on Endothelin-1 receptor and 10 in experiment [1].
